Read-outs that look alike come from different tables or passages of the source.
Tests used:
EGFR L858R = target: T1, EGFR L858R (Homo sapiens, UniProt P00533, L858R); test: Inhibition of EGFR L858R biochemical enzymatic activity (HTRF); settings: 1 mM ATP, 1 h, room temperature, read-out: IC50 (nM) @L858R
T1 construct: purchased Carna Bio
Method in brief: (§1)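 In a buffer with 5 mM MgCl2, 1 mM MnCl2, 1 mM DTT and 0.01% CHAPS, enzyme turnover of 1 μM biotinylated TK substrate at 1 mM ATP is followed by HTRF after 1 h at room temperature. IC50 is obtained by a four-parameter fit.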

EGFR L858R/T790M = target: T2, EGFR L858R/T790M (Homo sapiens, UniProt P00533, L858R/T790M); test: Inhibition of EGFR L858R/T790M biochemical enzymatic activity (HTRF); settings: EGFR L858R-T790M, 1 mM ATP, 1 h, room temperature, read-out: IC50 (nM) @L858R-T790M
T2 construct: purchased Carna Bio
T2 sequence (P00533 25-1210 T790M/L858R): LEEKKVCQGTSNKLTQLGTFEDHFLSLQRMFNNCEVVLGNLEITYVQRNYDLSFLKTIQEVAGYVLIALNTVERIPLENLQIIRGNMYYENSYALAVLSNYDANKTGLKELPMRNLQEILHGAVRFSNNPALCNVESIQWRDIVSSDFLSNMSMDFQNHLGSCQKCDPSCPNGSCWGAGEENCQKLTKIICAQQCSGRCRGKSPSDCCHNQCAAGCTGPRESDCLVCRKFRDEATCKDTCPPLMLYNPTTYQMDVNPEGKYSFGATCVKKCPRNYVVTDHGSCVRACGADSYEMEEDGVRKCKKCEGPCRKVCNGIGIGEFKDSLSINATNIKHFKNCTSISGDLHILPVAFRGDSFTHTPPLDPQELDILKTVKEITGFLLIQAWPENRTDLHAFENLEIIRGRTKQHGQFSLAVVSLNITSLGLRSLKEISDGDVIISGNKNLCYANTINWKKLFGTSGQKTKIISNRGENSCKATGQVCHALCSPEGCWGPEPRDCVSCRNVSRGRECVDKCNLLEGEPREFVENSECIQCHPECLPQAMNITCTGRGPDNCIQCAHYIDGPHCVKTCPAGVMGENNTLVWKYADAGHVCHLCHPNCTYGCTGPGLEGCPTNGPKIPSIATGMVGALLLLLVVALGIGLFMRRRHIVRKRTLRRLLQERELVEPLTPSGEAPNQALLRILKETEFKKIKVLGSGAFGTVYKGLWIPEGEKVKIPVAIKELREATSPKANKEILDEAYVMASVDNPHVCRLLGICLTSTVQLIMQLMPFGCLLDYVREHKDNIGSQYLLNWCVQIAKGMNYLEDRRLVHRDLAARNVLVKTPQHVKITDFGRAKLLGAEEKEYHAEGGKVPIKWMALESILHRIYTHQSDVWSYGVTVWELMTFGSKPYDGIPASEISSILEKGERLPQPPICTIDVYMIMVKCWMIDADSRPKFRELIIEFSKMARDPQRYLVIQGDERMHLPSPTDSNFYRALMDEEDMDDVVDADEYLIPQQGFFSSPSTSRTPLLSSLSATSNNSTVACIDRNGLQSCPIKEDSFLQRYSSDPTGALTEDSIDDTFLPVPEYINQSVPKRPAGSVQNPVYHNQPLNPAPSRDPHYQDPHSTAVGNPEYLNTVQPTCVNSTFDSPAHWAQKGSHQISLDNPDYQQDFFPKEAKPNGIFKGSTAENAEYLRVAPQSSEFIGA
Method in brief: as §1

EGFR Exon19Del = target: T3, EGFR Exon19Del (Homo sapiens, UniProt P00533, DEL746-750); test: Inhibition of EGFR Exon19Del biochemical enzymatic activity (HTRF); settings: EGFR Del19, 1 mM ATP, 1 h, room temperature, read-out: IC50 @Del19
T3 construct: purchased Carna Bio
T3 sequence (P00533 with tags, fused parts or gaps DEL746-750 limits assumed): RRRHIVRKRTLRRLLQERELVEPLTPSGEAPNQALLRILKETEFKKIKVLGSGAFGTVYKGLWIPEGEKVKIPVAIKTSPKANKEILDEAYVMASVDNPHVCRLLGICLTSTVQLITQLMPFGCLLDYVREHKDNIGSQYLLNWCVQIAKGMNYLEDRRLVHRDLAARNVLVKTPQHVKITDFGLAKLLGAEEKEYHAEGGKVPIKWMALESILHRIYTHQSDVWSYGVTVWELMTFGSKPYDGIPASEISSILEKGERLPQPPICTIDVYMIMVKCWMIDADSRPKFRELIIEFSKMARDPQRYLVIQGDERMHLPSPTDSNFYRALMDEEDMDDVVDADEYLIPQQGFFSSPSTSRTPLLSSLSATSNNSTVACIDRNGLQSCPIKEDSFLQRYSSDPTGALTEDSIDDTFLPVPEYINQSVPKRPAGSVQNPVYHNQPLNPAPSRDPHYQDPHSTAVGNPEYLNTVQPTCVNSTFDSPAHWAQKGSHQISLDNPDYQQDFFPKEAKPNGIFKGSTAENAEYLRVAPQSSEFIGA
Method in brief: as §1

EGFR Exon19Del/T790M = target: T4, EGFR Exon19Del/T790M (Homo sapiens, UniProt P00533, DEL746-750/T790M); test: Inhibition of EGFR Exon19Del/T790M biochemical enzymatic activity (HTRF); settings: EGFR Del19-T790M, 1 mM ATP, 1 h, room temperature, read-out: IC50 (nM) @Del19-T790M
T4 construct: purchased Carna Bio
T4 sequence (P00533 with tags, fused parts or gaps DEL746-750/T790M limits assumed): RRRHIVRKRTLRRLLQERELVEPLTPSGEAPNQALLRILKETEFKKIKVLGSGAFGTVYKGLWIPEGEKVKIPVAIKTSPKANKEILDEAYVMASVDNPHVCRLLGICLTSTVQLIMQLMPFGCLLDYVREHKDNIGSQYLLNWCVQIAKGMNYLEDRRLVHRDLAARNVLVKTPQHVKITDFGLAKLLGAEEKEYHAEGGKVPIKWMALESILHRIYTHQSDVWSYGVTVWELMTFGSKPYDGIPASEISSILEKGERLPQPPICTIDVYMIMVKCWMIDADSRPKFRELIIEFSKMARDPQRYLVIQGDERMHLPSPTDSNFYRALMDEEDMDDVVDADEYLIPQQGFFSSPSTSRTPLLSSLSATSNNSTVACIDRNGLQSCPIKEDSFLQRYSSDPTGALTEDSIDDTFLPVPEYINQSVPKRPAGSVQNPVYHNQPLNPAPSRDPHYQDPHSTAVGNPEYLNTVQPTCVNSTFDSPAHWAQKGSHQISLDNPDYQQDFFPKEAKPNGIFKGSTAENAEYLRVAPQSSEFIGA
Method in brief: as §1

EGFR[T790M/C797S/L858R] = target: T5, EGFR[T790M/C797S/L858R] (Homo sapiens, UniProt P00533, C797S/L858R/T790M); test: Inhibition of EGFR[T790M/C797S/L858R] biochemical enzymatic activity (HTRF); settings: EGFR T790M-C797S-L858R, 1 mM ATP, 1 h, room temperature, read-out: IC50 (nM) @T790M- C797S - L858R
T5 construct: purchased Carna Bio
Method in brief: as §1

[1] = target: T6, EGFR[T790M/C797S/d746-750] (Homo sapiens, UniProt P00533, C797S/DEL746-750/T790M); test: Inhibition of EGFR[T790M/C797S/d746-750] biochemical enzymatic activity (HTRF); settings: EGFR T790M-C797S-Del19, 1 mM ATP, 1 h, room temperature, read-out: IC50 (nM) @T790M - C797S - Del19
T6 construct: purchased Carna Bio
T6 sequence (P00533 with tags, fused parts or gaps DEL746-750/T790M/C797S limits assumed): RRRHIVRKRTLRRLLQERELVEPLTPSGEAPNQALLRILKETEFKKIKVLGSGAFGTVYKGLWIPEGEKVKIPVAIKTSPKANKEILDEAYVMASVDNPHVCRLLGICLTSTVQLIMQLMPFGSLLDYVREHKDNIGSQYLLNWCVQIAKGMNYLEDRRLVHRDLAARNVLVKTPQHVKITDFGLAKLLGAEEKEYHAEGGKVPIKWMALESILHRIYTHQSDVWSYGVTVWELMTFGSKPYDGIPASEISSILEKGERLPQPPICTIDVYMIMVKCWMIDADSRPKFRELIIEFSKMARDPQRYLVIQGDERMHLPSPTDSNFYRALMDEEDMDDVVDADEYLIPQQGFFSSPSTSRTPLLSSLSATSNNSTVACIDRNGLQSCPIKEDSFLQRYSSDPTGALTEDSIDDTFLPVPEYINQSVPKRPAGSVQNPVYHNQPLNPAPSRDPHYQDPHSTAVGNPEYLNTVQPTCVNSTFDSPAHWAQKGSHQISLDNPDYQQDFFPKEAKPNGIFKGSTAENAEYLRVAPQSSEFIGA
Method in brief: as §1

EGFR (d746-750 C797S) = target: T7, EGFR (d746-750 C797S) (Homo sapiens, UniProt P00533, C797S/DEL746-750); test: Inhibition of EGFR (d746-750 C797S) biochemical enzymatic activity (HTRF); settings: EGFR Del19-C797S, 1 mM ATP, 1 h, room temperature, read-out: IC50 (nM) @Del19-C797S
T7 construct: purchased signalchem
T7 sequence (P00533 with tags, fused parts or gaps DEL746-750/C797S limits assumed): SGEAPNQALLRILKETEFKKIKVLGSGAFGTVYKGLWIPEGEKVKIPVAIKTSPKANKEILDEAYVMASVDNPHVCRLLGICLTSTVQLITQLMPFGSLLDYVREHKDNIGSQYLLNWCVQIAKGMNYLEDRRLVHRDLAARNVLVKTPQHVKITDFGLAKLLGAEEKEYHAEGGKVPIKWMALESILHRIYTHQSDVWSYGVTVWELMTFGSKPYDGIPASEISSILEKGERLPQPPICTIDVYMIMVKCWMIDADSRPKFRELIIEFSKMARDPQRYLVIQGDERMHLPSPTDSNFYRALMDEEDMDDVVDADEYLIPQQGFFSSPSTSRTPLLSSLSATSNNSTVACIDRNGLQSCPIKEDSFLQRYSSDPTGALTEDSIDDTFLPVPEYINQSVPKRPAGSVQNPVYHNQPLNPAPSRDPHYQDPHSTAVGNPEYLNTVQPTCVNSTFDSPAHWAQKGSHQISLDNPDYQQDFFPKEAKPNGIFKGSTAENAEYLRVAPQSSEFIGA
Method in brief: as §1

EGFR (C797S L858R) = target: T8, EGFR (C797S L858R) (Homo sapiens, UniProt P00533, C797S/L858R); test: Inhibition of EGFR (C797S L858R) biochemical enzymatic activity (HTRF); settings: EGFR L858-C797S, 1 mM ATP, 1 h, room temperature, read-out: IC50 (nM) @L858-C797S
T8 construct: purchased signalchem
Method in brief: as §1

[2] = system: Ba/F3 cells expressing EGFR mutations; test: Cell proliferation assay, Ba/F3 cells expressing EGFR mutations (CellTiter-Glo, 72 hours); type: cell-based; settings: CellTiter-Glo
Method in brief: (§2)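 In RPMI1640 medium (PC-9 with 10% FBS), each cell line was seeded at its own density: Ba/F3 5000 and PC-9 500 per well. A compound series was added the next day, with a time-zero viability plate read in parallel. Percent proliferation was subtracted for G0 and referenced to DMSO, and GI50 was derived by curve fitting.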

PC-9 = test: Cell proliferation assay, PC-9 cells (CellTiter-Glo, 72 hours); type: cell-based; settings: PC9 cells, CellTiter-Glo, read-out: PC9 GI50
Method in brief: as §2

A-431 = test: Cell proliferation GI50, A-431 cells (Table 6); type: cell-based
Description: [Worded in the source for another cell line; this cell line is reported under the same test.] Ba/F3 cells expressing EGFR mutations were seeded in 384-well plates at 5000 cells/well in RPMI1640 medium containing […]. PC-9 at 500 cells/well was seeded into 384-well plates in RPMI1640 medium with 10% FBS. After overnight incubation, the assay plates were dosed with compounds at a series of concentrations. Alongside dosing the assay plates, the day 0 plate was processed using CellTiter-Glo® Luminescent Cell Viability Assay (Promega) to measure the number of viable cells (G0). The assay plates were further incubated for 72 hours and the number of viable cells (G3) was measured. The percentage of proliferation was calculated as: […]=100×(G3 value of sample well−G0 value)/(G3 value of DMSO control−G0 value). The concentration of compound producing 50% proliferation inhibition (GI50) was further calculated in best-fit curves using XLFit software. N/A=not available.

[3] = BaF3 cells, EGFR DEL19-C797S, read-out: DEL19-C797S/BaF3 GI50
[4] = BaF3 cells, EGFR DEL19-T790-C797S, read-out: DEL19-T790-C797S/BaF3 GI50
[5] = BaF3 cells, EGFR L858R, read-out: L858R/BaF3 GI50
[6] = BaF3 cells, EGFR L858R-C797S, read-out: L858R-C797S/BaF3 GI50
[7] = BaF3 cells, EGFR L858R-T790-C797S, read-out: L858R-T790-C797S/BaF3 GI50
[8] = BaF3 cells, EGFR L858R-T790M, read-out: L858R-T790M/BaF3 GI50
[9] = EGFR DEL19-T790M, read-out: DEL19-T790M GI50
[10] = Mus musculus, BaF3, 72 h, BaF3 cells, EGFR DEL19-C797S, read-out: DEL19-C797S/BaF3 GI50
[11] = Mus musculus, BaF3, 72 h, BaF3 cells, EGFR DEL19-T790-C797S, read-out: DEL19-T790-C797S/BaF3 GI50
[12] = Mus musculus, BaF3, 72 h, BaF3 cells, EGFR L858R, read-out: L858R/BaF3 GI50
[13] = Mus musculus, BaF3, 72 h, BaF3 cells, EGFR L858R-C797S, read-out: L858R-C797S/BaF3 GI50
[14] = Mus musculus, BaF3, 72 h, BaF3 cells, EGFR L858R-T790-C797S, read-out: L858R-T790-C797S/BaF3 GI50
[15] = Mus musculus, BaF3, 72 h, BaF3 cells, EGFR L858R-T790M, read-out: L858R-T790M/BaF3 GI50
[16] = Mus musculus, BaF3, 72 h, EGFR DEL19-T790M, read-out: DEL19-T790M GI50
[17] = Homo sapiens, A-431, A-431 cells

T1 sequence (P00533 25-1210 L858R): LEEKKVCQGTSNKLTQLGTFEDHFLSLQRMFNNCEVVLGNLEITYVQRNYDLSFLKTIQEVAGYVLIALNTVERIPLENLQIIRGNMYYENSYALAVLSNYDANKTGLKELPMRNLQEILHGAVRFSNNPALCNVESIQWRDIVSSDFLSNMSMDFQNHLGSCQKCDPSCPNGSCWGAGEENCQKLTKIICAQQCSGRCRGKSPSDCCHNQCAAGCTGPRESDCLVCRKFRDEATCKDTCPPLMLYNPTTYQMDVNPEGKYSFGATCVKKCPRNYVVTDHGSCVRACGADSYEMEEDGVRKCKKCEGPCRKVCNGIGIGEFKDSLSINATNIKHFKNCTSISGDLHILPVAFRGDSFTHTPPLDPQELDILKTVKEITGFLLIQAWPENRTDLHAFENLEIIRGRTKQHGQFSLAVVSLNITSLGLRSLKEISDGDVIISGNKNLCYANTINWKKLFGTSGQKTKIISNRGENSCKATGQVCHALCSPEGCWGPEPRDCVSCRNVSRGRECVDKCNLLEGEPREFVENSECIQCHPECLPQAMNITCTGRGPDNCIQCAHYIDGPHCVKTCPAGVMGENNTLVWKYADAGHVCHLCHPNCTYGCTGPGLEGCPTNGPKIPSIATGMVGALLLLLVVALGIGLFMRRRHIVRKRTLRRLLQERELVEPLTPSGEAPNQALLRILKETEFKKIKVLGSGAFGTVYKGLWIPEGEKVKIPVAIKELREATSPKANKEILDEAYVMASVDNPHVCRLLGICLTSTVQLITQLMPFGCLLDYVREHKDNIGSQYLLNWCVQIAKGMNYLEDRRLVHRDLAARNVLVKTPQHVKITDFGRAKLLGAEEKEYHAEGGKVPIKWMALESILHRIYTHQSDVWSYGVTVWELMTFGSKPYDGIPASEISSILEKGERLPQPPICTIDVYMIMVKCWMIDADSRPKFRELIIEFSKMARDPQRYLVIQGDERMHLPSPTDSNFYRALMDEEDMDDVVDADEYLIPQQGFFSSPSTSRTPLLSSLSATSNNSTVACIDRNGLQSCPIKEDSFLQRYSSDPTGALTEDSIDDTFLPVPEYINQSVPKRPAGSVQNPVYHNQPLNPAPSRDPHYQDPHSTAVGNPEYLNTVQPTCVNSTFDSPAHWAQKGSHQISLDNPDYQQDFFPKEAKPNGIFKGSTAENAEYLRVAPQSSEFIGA

SMILES | GI50 [2, 3] | GI50 [2, 4] | GI50 [2, 5] | GI50 [2, 6] | GI50 [2, 7] | GI50 [2, 8] | GI50 [2, 9] | GI50 (PC-9) | GI50 (A-431; A-431 cells) | GI50 [2, 10] | GI50 [2, 11] | GI50 [2, 12] | GI50 [2, 13] | GI50 [2, 14] | GI50 [2, 15] | GI50 [2, 16] | GI50 (PC-9; Homo sapiens, PC-9, 72 h) | GI50 (A-431; [17]) | further results
CN1CCN(c2ccc3c(c2)nc2n3C34CCC(CN(CCOc5c(cnn5C)-c5cc(cn(C)c5=O)C(=O)N2)C3)C4)CC1 (centres unmarked) [Example A60, 15,21-dimethyl-6-(4-methylpiperazin-1-yl)-23-oxa-2,9,11,15,20,21,26-heptaazaheptacyclo[24.4.1.1^{1,28}.1^{13,17}.0^{2,10}.0^{3,8}.0^{18,22}]tritriaconta-3,5,7,9,13,17(33),18(22),19-octaene-12,16-dione] | 19 nM | 40 nM | 87 nM | 120 nM | 86 nM | 457 nM | 63 nM | 146 nM | 4110 nM | – | – | – | – | – | – | – | – | – | IC50 (EGFR L858R): 917 nM; IC50 (EGFR L858R/T790M): 240 nM; IC50 (EGFR Exon19Del): 23 nM; IC50 (EGFR Exon19Del/T790M): 8.6 nM; IC50 (EGFR[T790M/C797S/L858R]): 157 nM; IC50 [1]: 9.4 nM; IC50 (EGFR (d746-750 C797S)): 18 nM; IC50 (EGFR (C797S L858R)): 619 nM
CN1CCN(C2CN(c3ccc4nc5n(c4c3)C34CCC(CN(CCOc6c(cnn6C)-c6cc(cn(C)c6=O)C(=O)N5)C3)C4)C2)CC1 (single isomer, unassigned) [Example A70A] | 188 nM | 411 nM | 603 nM | 452 nM | 463 nM | 1870 nM | 517 nM | 554 nM | 3100 nM | – | – | – | – | – | – | – | – | – | –
C[C@@H]1CCCOc2c(cnn2C)-c2cc(cn(C)c2=O)C(=O)Nc2nc3ccc(N4CC5CCN(C)C5C4)cc3n2C1 (some centres unmarked) [Example A32] | – | – | – | – | – | – | – | – | – | 0.43 nM | 1.5 nM | 3 nM | 2.8 nM | 2.9 nM | 9.1 nM | 3.8 nM | 7.3 nM | 248 nM | –
Cn1ncc2c1OCCN1CCC(C)(C1)n1c(nc3ccc(N4CCOCC4)cc31)NC(=O)c1cc-2c(=O)n(C)c1 (centres unmarked) [Example A11, 5,13,27-trimethyl-17-(morpholin-4-yl)-7-oxa-4,5,10,14,21,23,27-heptaazahexacyclo[23.3.1.1^{10,13}.0^{2,6}.0^{14,22}.0^{15,20}]triaconta-1(29),2(6),3,15,17,19,21,25-octaene-24,28-dione] | – | – | – | – | – | – | – | – | – | 666 nM | 1750 nM | 2690 nM | 2250 nM | 2150 nM | 1720 nM | 1790 nM | 903 nM | 2610 nM | –
C[C@@H]1CCCOc2c(cnn2C)-c2cc(cn(C)c2=O)C(=O)Nc2nc3ccc(N4CCC5(CCN(C)C5)C4)cc3n2C1 (some centres unmarked) [Example A34] | – | – | – | – | – | – | – | – | – | 1.1 nM | 1.3 nM | 4.6 nM | 4.2 nM | 8.9 nM | 9.8 nM | 5 nM | 9.1 nM | 587 nM | –
CN(C)CCN(C)c1ccc2nc3n(c2c1)CCN(CC(F)F)CCOc1c(cnn1C)-c1cc(cn(C)c1=O)C(=O)N3 [Example A4, 10-(2,2-Difluoroethyl)-16-{[2-(dimethylamino)ethyl](methyl)amino}-5,26-dimethyl-7-oxa-4,5,10,13,20,22,26-heptaazapentacyclo[22.3.1.0^{2,6}.0^{13,21}.0^{14,19}]octacosa-1(28),2(6),3,14,16,18,20,24-octaene-23,27-dione] | – | – | – | – | – | – | – | – | – | 77 nM | 811 nM | 56 nM | 63 nM | 76 nM | 585 nM | 788 nM | 183 nM | 2540 nM | –
Cn1ncc2c1OCCN1CC3CCC(C3)(C1)n1c(nc3ccc(N4CCN(C5COC5)CC4)cc31)NC(=O)c1cc-2c(=O)n(C)c1 (single isomer, unassigned) [Example A71A] | 286 nM | 579 nM | 1760 nM | 954 nM | 762 nM | 2410 nM | 735 nM | 787 nM | 7860 nM | – | – | – | – | – | – | – | – | – | –
CN1CC2CN(c3ccc4nc5n(c4c3)C34CCC(CN(CCOc6c(cnn6C)-c6cc(cn(C)c6=O)C(=O)N5)C3)C4)CC2C1 (single isomer, unassigned) [Example A68A] | 196 nM | 409 nM | 480 nM | 402 nM | 366 nM | 1120 nM | 543 nM | 460 nM | 5320 nM | – | – | – | – | – | – | – | – | – | –
CN1CCN(c2ccc3nc4n(c3c2)C23CCC(CN(CCOc5c(cnn5C)-c5cc(cn(C)c5=O)C(=O)N4)C2)C3)CC1 (single isomer, unassigned) [Example A63A] | 324 nM | 540 nM | 2370 nM | 1020 nM | 988 nM | 3690 nM | 929 nM | 841 nM | 9370 nM | – | – | – | – | – | – | – | – | – | –
C[C@@H]1CCCOc2c(cnn2C)-c2cc(cn(C)c2=O)C(=O)Nc2nc3ccc(N4CC(N5CCOCC5)C4)cc3n2C1 [Example A45] | – | – | – | – | – | – | – | – | – | 5.1 nM | 16 nM | 8.6 nM | 14 nM | 9.3 nM | 29 nM | 20 nM | 15 nM | 245 nM | –
C[C@@H]1CCCOc2c(cnn2C)-c2cc(cn(C)c2=O)C(=O)Nc2nc3ccc(N4CC5CN(C)CC5C4)cc3n2C1 (some centres unmarked) [Example A30] | – | – | – | – | – | – | – | – | – | 2.3 nM | 3.6 nM | 13 nM | 11 nM | 13 nM | 24 nM | 15 nM | 17 nM | 719 nM | –

— patent publication US20260365670A1, “EGFR INHIBITORS AND USES THEREOF” (DIZAL (JIANGSU) PHARMACEUTICAL CO., LTD., priority 2022, published 2026)
